In test [1] the test system is P. falciparum 3D7. As to the kind of experiment: DAPI stain fluorescent high content imaging assay, P. falciparum 3D7 (confirmatory screen, Avery). The following applies: Plasmodium falciparum; for EC50: 3D7, read-out: EC50_nM; for inhibition of growth at 5 µM: 3D7, read-out: percent_inh @ 5 uM.
Test [2] has as its system P. falciparum 3D7. Details: method as in ChEMBL-NTD. The settings on record: ref ChEMBL-NTD, cited from earlier work.
Where [3] appears, read: values follow the order of the source (GNF; GSK; StJude).

Structures are written as SMILES. Where two headings read alike, the source gives them in different places.

Take `COc1ccc(C2=C(c3ccc(OC)cc3)C3(c4ccccc4)C(=O)C2(c2ccccc2)C2C(=O)N(c4ccc(C)cc4)C(=O)C23)cc1` (stereo not shown) [MMV666101]: in test [1], the EC50 stood at 148 nM and the inhibition of growth at 5 µM was found to be 98%. Also, the EC50 in test [2] (source GNF (GNF-Pf id)) is 12500 nM.
In the case of `CN(C)c1ccc(-c2nc3cc(N)ccc3[nH]2)cc1` [MMV666102], the inhibition of growth at 5 µM in test [1] came to 64%. For the same compound, the EC50 in test [2] (source GSK) is 239 nM.
Turning to `CCn1c(SCC(=O)Nc2cc(C(F)(F)F)ccc2Cl)nc2ccccc2c1=O` [MMV666103], the EC50 was 1000 nM in test [1] and 397 nM in test [2] (source GSK). In addition, the inhibition of growth at 5 µM in test [1] stood at 91%.
For the compound `COCCN(C(=O)Cc1cccs1)C(C(=O)NCc1ccc(OC)cc1)c1ccc(C(C)C)cc1` (stereo not shown) [MMV666105], in test [1], the EC50 was found to be 1190 nM and the inhibition of growth at 5 µM turned out to be 92%. For the same compound, the EC50 in test [2] (source GSK) is 845 nM.
Turning to `O=C(NC1CCCCC1)C(c1cccs1)N(CCc1ccccc1)C(=O)c1ccco1` (stereo not shown) [MMV666106], the EC50 in test [1] is 1070 nM; in test [2] (source GSK (TCMDC ids)) it was 1040 nM. Also, the inhibition of growth at 5 µM in test [1] is 90%.
With `O=C(CCc1ccco1)NC1CCN(CC2(c3ccc(Cl)cc3)CCC2)CC1` [MMV666108], in test [1], the EC50 is 1140 nM and the inhibition of growth at 5 µM is 96%. Besides, the EC50 in test [2] (source GSK) is 1450 nM.
Turning to `CCOC(=O)C1(Cc2ccccc2)CCN(Cc2cccc(OC)c2O)CC1` [MMV666109], the inhibition of growth at 5 µM in test [1] came out at 95%. The EC50 in test [2] (source StJude (SJ ids)) is 2290 nM.
Consider `C=C(C)CCC(C)N1CCC(N2CCC(C(=O)NCCc3ccccc3)CC2)CC1` (stereo not shown) [MMV666110], for which the EC50 in test [1] was 1750 nM; in test [2] (source StJude) it was 4260 nM. The inhibition of growth at 5 µM in test [1] is 96%.
`Oc1ccccc1CN1CCC2(CCCN(Cc3ccccc3F)C2)C1` (stereo not shown) [MMV666116]: in test [1], the EC50 worked out at 548 nM and the inhibition of growth at 5 µM was 98%. For the same compound, the EC50 in test [2] (original screening data, source (GSK, GNF, StJude), several values separated by ';' in order of sources) was 679 nM.
`CC(C)(C)c1ccc(C(=O)Nc2c3c(nn2-c2cccc(Cl)c2)CSC3)cc1` [MMV666123]: the inhibition of growth at 5 µM in test [1] worked out at 93%. The EC50 in test [2] (source StJude (SJ ids)) is 15000 nM.
As to `CC(=O)c1ccc(NC(=O)CSc2nc(-c3ccccc3Cl)ns2)cc1` [MMV666124], in test [1] (3D7, read-out: % inh. At 2.5 uM), the inhibition at 2.5 µM stood at 88%. The EC50 in test [2] (source GSK (TCMDC ids)) was 1130 nM.
Consider `CC1=C(CC(=O)c2cccc([N+](=O)[O-])c2)C(=O)c2ccccc2C1=O` [MMV666125], for which, in test [1], the EC50 came to 381 nM and the inhibition of growth at 5 µM was determined as 95%. Further, the EC50 in test [2] (source GNF (GNF-Pf ids)) was 2840 nM.
As for `CSC1=NC(=Nc2c(C)cccc2C)C2(CCC(C(C)(C)C)CC2)N1c1ccc(Cl)cc1` (stereo not shown) [MMV666596], in test [1], the EC50 is 135 nM and the inhibition of growth at 5 µM amounted to 96%. Besides, in test [2] (source GNF (GNF-Pf id)), the EC50 was 1480 nM.
`CCCCCCc1cc2cc(-c3nc4ccccc4[nH]3)c(=Nc3ccccc3C)oc2cc1O` [MMV666597]: in test [1], the EC50 is 551 nM and the inhibition of growth at 5 µM was 96%. The EC50 in test [2] (setting [3]) is 2120 nM.
Turning to `O=c1nc(C=Cc2ccc(Br)cc2)oc2ccccc12` [MMV666599], in test [1], the inhibition of growth at 5 µM turned out to be 94%. The EC50 in test [2] (source GSK (TCMDC ids)) is 1050 nM.
Take `CCOC(=O)c1c(C)n(-c2ccc(Cl)cc2)c2ccc(OC(=O)C=Cc3ccccc3)cc12` [MMV666600]: in test [1], the EC50 was 216 nM and the inhibition of growth at 5 µM came out at 97%. For the same compound, the EC50 in test [2] (source GSK (TCMDC id)) is 698 nM.
Take `CCOC(=O)C1=C(c2ccccc2)N=c2sc(=Cc3cc(C)n(-c4ccc(F)cc4)c3C)c(=O)n2C1c1cccc(OC)c1OC` (stereo not shown) [MMV666601]: the EC50 in test [1] is 154 nM; in test [2] (source GNF (GNF-Pf id)) it was 2320 nM. In addition, the inhibition of growth at 5 µM in test [1] worked out at 94%.
In the case of `CCOC(=O)C1=C(C)N=c2sc(=Cc3ccccc3O)c(=O)n2C1c1ccc(OC)c2ccccc12` (stereo not shown) [MMV666604], the EC50 is 1510 nM in test [1] and 1260 nM in test [2] (source GSK (TCMDC ids)). Further, in test [1], the inhibition of growth at 5 µM came out at 97%.
On to `O=[N+]([O-])c1ccc(C=NNc2nc3ccccc3[nH]2)cc1` [MMV666607], for which the EC50 in test [1] was 142 nM; in test [2] (source GNF (GNF-Pf id)) it was 818 nM; in test [2] (source GSK (TCMDC id)) it was 283 nM. Moreover, the inhibition of growth at 5 µM in test [1] is 99%.
For the compound `COc1ccccc1C(=O)ON=C(N)Cc1cccc2ccccc12` [MMV666686], in test [1], the EC50 worked out at 814 nM and the inhibition of growth at 5 µM stood at 97%. Besides, in test [2] (setting [3]), the EC50 is 352 nM.
Turning to `COc1cc(C(=O)ON=C(N)Cc2cccc3ccccc23)cc(OC)c1OC` [MMV666687], in test [1], the EC50 was 782 nM and the inhibition of growth at 5 µM came to 99%. Also, the EC50 in test [2] (setting [3]) was 280 nM.
For `Cc1cc(C=C2SC(=Nc3ccccc3)N(C3CCCC3)C2=O)c(C)n1-c1ccc(Cl)cc1` [MMV666688], in test [1], the EC50 turned out to be 263 nM and the inhibition of growth at 5 µM turned out to be 97%. Also, the EC50 in test [2] (source GSK (TCMDC id)) is 876 nM.
As to `COc1ccc(Nc2nc(NN=Cc3ccc(O)cc3)nc(Nc3ccc([N+](=O)[O-])cc3)n2)cc1` [MMV666689], in test [1], the EC50 turned out to be 532 nM and the inhibition of growth at 5 µM was 98%. For the same compound, the EC50 in test [2] (source GSK) was 1120 nM.
Take `COc1ccc(C=C2SC(=N)N(c3ccccc3OC)C2=O)cc1` [MMV666691]: the EC50 in test [1] is 168 nM; in test [2] (source GSK (TCMDC id)) it was 300 nM. In addition, the inhibition of growth at 5 µM in test [1] came out at 97%.
As for `CCCCCCc1cc2cc(-c3csc(C=Cc4ccccc4)n3)c(=O)oc2cc1O` [MMV666692], in test [1], the EC50 amounted to 387 nM and the inhibition of growth at 5 µM was 92%. Also, the EC50 in test [2] (setting [3]) is 970 nM.
For `COc1cccc(C=Cc2nc(=O)c3ccccc3o2)c1OC` [MMV666693], in test [1], the EC50 is 23.8 nM and the inhibition of growth at 5 µM was 96%. The EC50 in test [2] (source GSK (TCMDC id)) is 64.4 nM.
With `COc1ccc(CCn2c(=N)c(C(=O)NCc3cccnc3)cc3c(=O)n4cccc(C)c4nc32)cc1` [MMV667488], the values for the EC50 in test [1] and in test [2] (setting [3]) were 373 nM and 1400 nM, respectively.

(Values after article PMC3684613 (PLoS ONE, 2013).)
